The test system of this data set is rodent carcinogenicity bioassays, tumor incidence. The experiment in a line: CCRIS carcinogenicity studies. The gist of the method: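 Archive of carcinogenicity, mutagenicity, tumor promotion and tumor inhibition results drawn from journals, NCI reports and other sources, expert-reviewed; covers 1985-2011 and is no longer updated.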

For eight compounds, carcinogen call results are on record in PubChem BioAssay AID1259411 (Chemical Carcinogenesis Research Information System (CCRIS), 2018).

Calls of active or inactive are those of the source. No rule for the calls is given here.

With `O=C(O)CO`, the carcinogen call reads like this: (Species: Mouse, Strain/Sex: SKH-1/Female (18/Group), Route: Dermal, Dose: 0, 4, 10% administered as topical cream (pH 3.5) , 5 d/wk, 40 wk, animals held an additional 12 wk for study duration of, Tumor Site: Type of Lesion: Skin: Carcinoma in situ, squamous cell carcinoma, basal cell carcinoma) “inactive; negative. when synthetic solar light (ssl) at 0.3 and 0.6 the minimal erythema d”; (Species: Mouse, Strain/Sex: SKH-1/Male (18/Group), Route: Dermal, Dose: 0, 4, 10% administered as topical cream (pH 3.5) , 5 d/wk, 40 wk, animals held an additional 12 wk for study duration of, Tumor Site: Type of Lesion: Skin: Carcinoma in situ, squamous cell carcinoma, basal cell carcinoma) “inactive; negative. when synthetic solar light (ssl) at 0.3 and 0.6 the minimal erythema d”.

As to `O=c1ccc2ccc3occc3c2o1`, the carcinogen call (Species: MOUSE, Strain/Sex: C3H/HEN/FEMALE, Route: DERMAL, Dose: 215 UG IN 70% ETHANOL 3/WK FOR 48 WK (STUDY DURATION: 68 WK)) is “inactive; negative”.

Turning to `CC(C)[C@@H]1CC[C@@H](C)C[C@H]1O`, the carcinogen call runs as follows: (Species: MOUSE, Strain/Sex: B6C3F1/FEMALE, Route: ORAL, Dose: 0, 2000, 4000 PPM IN DIET, Dose: 0, 2000, 4000 PPM IN DIET) “inactive; negative”; (Species: MOUSE, Strain/Sex: B6C3F1/MALE, Route: ORAL, Dose: 0, 2000, 4000 PPM IN DIET, Dose: 0, 2000, 4000 PPM IN DIET) “inactive; negative”; (Species: RAT, Strain/Sex: F344/FEMALE, Route: ORAL, Dose: 0, 3750, 7500 PPM IN DIET, Dose: 0, 3750, 7500 PPM IN DIET) “inactive; negative”; (Species: RAT, Strain/Sex: F344/MALE, Route: ORAL, Dose: 0, 3750, 7500 PPM IN DIET, Dose: 0, 3750, 7500 PPM IN DIET) “inactive; negative”.

Take `CCCCOCCO`: the carcinogen call (Species: MOUSE, Strain/Sex: B6C3F1/FEMALE, Route: INHALATION, Dose: 0, 62.5, 125, 250 PPM 6 HR/D 5D/WK FOR 104 WK (STUDY DURATION: 104 WK), Dose: 0, 62.5, 125, 250 PPM 6 HR/D 5D/WK FOR 104 WK (STUDY DURATION: 104 WK), Tumor Site: Type of Lesion: FORESTOMACH: SQUAMOUS CELL PAPILLOMA OR CARCINOMA) is “active; positive”; the carcinogen call (Species: MOUSE, Strain/Sex: B6C3F1/MALE, Route: INHALATION, Dose: 0, 62.5, 125, 250 PPM 6 HR/D 5D/WK FOR 104 WK (STUDY DURATION: 104 WK), Dose: 0, 62.5, 125, 250 PPM 6 HR/D 5D/WK FOR 104 WK (STUDY DURATION: 104 WK), Tumor Site: Type of Lesion: LIVER: HEMANGIOSARCOMA, HEPATOCELLULAR CARCINOMA) was “active; positive”; the carcinogen call (Species: RAT, Strain/Sex: F344/FEMALE, Route: INHALATION, Dose: 0, 31.2, 62.5, 125 PPM 6 HR/D 5D/WK FOR 104 WK (STUDY DURATION: 104 WK), Dose: 0, 31.2, 62.5, 125 PPM 6 HR/D 5D/WK FOR 104 WK (STUDY DURATION: 104 WK), Tumor Site: Type of Lesion: ADRENAL MEDULLA: BENIGN OR MALIGNANT PHEOCHROMOCYTOMA) is “equivocal”; the carcinogen call (Species: RAT, Strain/Sex: F344/MALE, Route: INHALATION, Dose: 0, 31.2, 62.5, 125 PPM 6 HR/D 5D/WK FOR 104 WK (STUDY DURATION: 104 WK), Dose: 0, 31.2, 62.5, 125 PPM 6 HR/D 5D/WK FOR 104 WK (STUDY DURATION: 104 WK)) was “inactive; negative”.

In the case of `NC(=O)OC1CO1` (configuration not stated), the carcinogen call was “active; positive” (Species: MOUSE, Strain/Sex: B6C3F1/MALE, Route: INTRAPERITONEAL, Dose: 0, 0.5, 1.25, 2.5 UG/G BW IN 10 µL TRIOCTANOIN ONCE (STUDY DURATION: 9 MO), Dose: 0, 0.5, 1.25, 2.5 UG/G BW IN 10 µL TRIOCTANOIN ONCE (STUDY DURATION: 9 MO), Tumor Site: Type of Lesion: LIVER: HEPATOMA); “active; positive” (Species: MOUSE, Strain/Sex: CD-1/FEMALE, Route: DERMAL, Dose: 0, 11.5 UMOL IN WEEKS 1 AND 2 THEN 5.7 UMOL IN WEEKS 3 AND 4 FOLLOWED BY 3.8 UMOL/WK FOR 28 WK (STUDY DURATION: 42 WK), Tumor Site: Type of Lesion: SKIN: PAPILLOMA, CARCINOMA); “active; positive” (Species: MOUSE, Strain/Sex: STRAIN-A/FEMALE, Route: INTRAPERITONEAL, Dose: 0, 34, 68 NMOL/G BW IN 5 µL TRIOCTANOIN ONCE (STUDY DURATION: 6 MO), Dose: 0, 34, 68 NMOL/G BW IN 5 µL TRIOCTANOIN ONCE (STUDY DURATION: 6 MO), Tumor Site: Type of Lesion: LUNG: ADENOMA); “active; positive” (Species: RAT, Strain/Sex: SPRAGUE-DAWLEY/FEMALE, Route: INTRAMUSCULAR, Dose: 0, 1.15, 2.30 UMOL IN 0.25 ML TRIOCTANOIN 1/WK FOR 10 WK (STUDY DURATION: 18 MO), Dose: 0, 1.15, 2.30 UMOL IN 0.25 ML TRIOCTANOIN 1/WK FOR 10 WK (STUDY DURATION: 18 MO), Tumor Site: Type of Lesion: INJECTION SITE: SARCOMA, MAMMARY GLAND: TUMOR).

As for `OCc1c2ccccc2cc2c1ccc1ccccc12`, the carcinogen call (Species: RAT, Strain/Sex: SPRAGUE-DAWLEY/FEMALE, Route: SUBCUTANEOUS, Dose: 0, 0.2 UMOL IN SESAME OIL:DMSO (9:1) 3/WK FOR 20 DOSES (STUDY DURATION: 52 WK), Tumor Site: Type of Lesion: INJECTION SITE: SARCOMA) is “active; positive”.

Regarding `COC(=O)C1=CCCN(C)C1`, the carcinogen call was “inactive; negative” (Species: MOUSE, Strain/Sex: SWISS/FEMALE, Route: GAVAGE, Dose: 0, 1 MG/D 5 D/WK FOR LIFE (STUDY DURATION: LIFE)) and “active; positive” (Species: MOUSE, Strain/Sex: SWISS/MALE, Route: GAVAGE, Dose: 0, 1 MG/D 5 D/WK FOR LIFE (STUDY DURATION: LIFE), Tumor Site: Type of Lesion: LIVER: HEMANGIOMA, LUNG: ADENOCARCINOMA, STOMACH: SQUAMOUS CELL CARCINOMA, Tumor Site: Type of Lesion: LIVER: HEMANGIOMA, LUNG: ADENOCARCINOMA, STOMACH: SQUAMOUS CELL CARCINOMA).

Take `CCNC(=S)NCC`: the carcinogen call was “inactive; negative” (Species: MOUSE, Strain/Sex: B6C3F1/FEMALE, Route: ORAL, Dose: 0, 250, 500 PPM IN DIET, Dose: 0, 250, 500 PPM IN DIET); “inactive; negative” (Species: MOUSE, Strain/Sex: B6C3F1/MALE, Route: ORAL, Dose: 0, 250, 500 PPM IN DIET, Dose: 0, 250, 500 PPM IN DIET); “active; positive” (Species: RAT, Strain/Sex: F344/FEMALE, Route: ORAL, Dose: 0, 125, 250 PPM IN DIET, Dose: 0, 125, 250 PPM IN DIET, Tumor Site: Type of Lesion: THYROID GLAND: FOLLICULAR CELL CARCINOMA OR FOLLICULAR CELL ADENOMA); “active; positive” (Species: RAT, Strain/Sex: F344/MALE, Route: ORAL, Dose: 0, 125, 250 PPM IN DIET, Dose: 0, 125, 250 PPM IN DIET, Tumor Site: Type of Lesion: THYROID GLAND: FOLLICULAR CELL CARCINOMA OR FOLLICULAR CELL ADENOMA).
